Experimental findings from patent US10178865B2, “Insect repellent” (priority 2013, dated 2019) are described below.

For this test, the system named is Red imported fire ant (Solenopsis invicta). The experiment in a line: Fire ant repellency, honey plates near mounds (Example 6). To be noted: separate trial; about 100 mg per plate; within 4 feet of mounds. Format: in vivo. The text has this:
Formulation A was poured into a plastic spray bottle and was sprayed onto 20 eight inch paper plates, one squeeze of the pump trigger per plate. […] Ten treated plates were placed randomly on the ground on a farm in Sparks, Ga., USA and ten control (untreated) plates were placed on the ground about 3 feet from the treated plates. Ten treated plates were placed about 4 feet from active Red imported fire ant mounds and ten control plates were placed near the same mounds no closer than 3 feet from the treated plates. Each plate received approximately 15 mL of an aqueous 25% honey solution.
Fifty percent of the control plates had active fire ant feeding within 15 minutes and 100% of the control plates had active fire ant feeding within 30 minutes.

For `COC(=O)c1ccccc1N` [methyl anthranilate], the “deterrence of fire ant feeding” value is listed as “did not deter fire ants from feeding”.
